Columns and labels:
[1] = tested on: gapped duplex plasmid (pUC118 vector); assay: Accuracy of DNA synthesis reaction (white colony formation); type: biochemical; settings: 0.5 units DNA polymerase, 70° C. for 10 minutes
Method: The accuracy of DNA synthesis reaction by DNA polymerases was examined using a pUC118 vector (manufactured by Takara Shuzo Co., Ltd.), partially made single stranded (gapped duplex plasmid, as a template. The single stranded pUC118 vector was prepared by the method described in Molecular Cloning: A Laboratory Manual, 2nd ed., 4.44-4.48, published by Cold Spring Harbor Laboratory in 1989, edited by T. Maniatis et al., using a helper phage M13KO7 (manufactured by Takara Shuzo Co., Ltd.) with Escherichia coli MV1184 (manufactured by Takara Shuzo Co., Ltd.) as a host. The double stranded DNA was prepared by digesting the pUC118 vector with PvuII (manufactured by Takara Shuzo Co., Ltd.), subjecting the digested vector to agarose gel electrophoresis, and recovering a DNA fragment of about 2.8 kbp.
One microgram of the above single stranded DNA and 2 μg of the double stranded DNA were mixed to make 180 μl of a mixture with sterile distilled water, and the solution was then incubated at 70° C. for 10 minutes. Thereafter, twenty microliters of 20×SSC was added to the resulting mixture, and the mixture was further kept standing at 60° C. for 10 minutes. The DNA was recovered by subjecting to ethanol precipitation. […] The white or blue colonies formed on the plate were counted, and the formation rate of white colonies which were resulted from a DNA synthesis error was calculated.

λ-DNA = assay: PCR with λ-DNA as a template; type: biochemical
Method: In order to compare the performance of the DNA polymerase of the present invention in PCR with that of the Taq DNA polymerase, PCR was carried out with λ-DNA as a template. The reaction mixture for the DNA polymerase of the present invention had the following composition: 10 mM Tris-HCl (pH 9.2), 3.5 mM MgCl2, 75 mM KCl, 400 μM each of dATP, dCTP, dGTP and dTTP, 0.01% bovine serum albumin (BSA), and 0.1% Triton X-100. The reaction solution for the Taq DNA polymerase had the following composition: 10 mM Tris-HCl (pH 8.3), 1.5 mM MgCl2, 50 mM KCl, and 400 μM each of dATP, dCTP, dGTP and dTTP. Fifty microliters of a reaction mixture containing 5.0 ng/50 μl λ-DNA (manufactured by Takara Shuzo Co., Ltd.), 10 pmol/50 μl each of primer λ1 and primer λ11, and 3.7 units/50 μl DNA polymerase was prepared. The base sequences of the primer λ1 and the primer λ11 are shown by SEQ ID NO:8 and SEQ ID NO:9 in Sequence Listing, respectively. After, a 30-cycle PCR was carried out with the above reaction mixture, wherein one cycle is defined at 98° C. for 10 seconds and at 68° C. for 10 seconds. Five microliters of the reaction mixture was subjected to agarose gel electrophoresis, and the amplified DNA fragment was confirmed by staining with ethidium bromide.
The experiment was then carried out by changing the primer to the primer λ1 and the primer λ10. The base sequence of the primer λ10 is shown by SEQ ID NO:10 in Sequence Listing. Twenty-five microliters of a reaction mixture having a similar composition to that shown above and containing 2.5 ng of λ-DNA, 10 pmol of the primer λ1 and the primer λ10, respectively, and 3.7 units of DNA polymerase was prepared. The reaction mixture was reacted in 5 cycles under the same reaction conditions as those described above, and 5 μl of the reaction mixture was subjected to agarose gel electrophoresis and stained with ethidium bromide.

[2] = primer λ1 and primer λ10, 5 cycles

DNA Polymerase of the Present Invention: complex of first (ORF3, SEQ ID NO:2) and second (ORF4, SEQ ID NO:4) DNA polymerase-constituting proteins from Pyrococcus furiosus
white colony formation rate (DNA synthesis error) [1]: 1.61%
length of DNA fragment amplified by PCR (λ-DNA; [2]): about 15 kbp

Taq DNA Polymerase: Taq DNA polymerase derived from Thermus aquaticus (TaKaRa Taq, manufactured by Takara Shuzo Co., Ltd.) [reference compound]
white colony formation rate (DNA synthesis error) [1]: 3.18%
length of DNA fragment amplified by PCR (λ-DNA; [2]): no specific amplification was observed
length of DNA fragment amplified by PCR (λ-DNA; primer λ1 and primer λ11, 30 cycles, enzyme used alone): not found
